The NIST ThermoML archive (doi:10.1021/je7006549)
Numbers after ± are expanded uncertainties.

Test: mn = molality of the nth substance listed, in mol/kg
Settings: 101 kPa, Liquid

Compound: Cc1ccccc1C [1,2-dimethylbenzene] + CC1=CC(=O)c2ccccc2C1=O
- mass density (303.15 K, m2 = 0): 872.1 ± 0.7 kg/m3
- viscosity (303.15 K, m2 = 0): 0.7404 ± 0.011 mPa·s
- mass density (308.15 K, m2 = 0): 867.7 ± 0.8 kg/m3
- viscosity (308.15 K, m2 = 0): 0.69 ± 0.01 mPa·s
- mass density (313.15 K, m2 = 0): 864 ± 0.8 kg/m3
- viscosity (313.15 K, m2 = 0): 0.6451 ± 0.0099 mPa·s
- mass density (318.15 K, m2 = 0): 859.7 ± 0.8 kg/m3
- viscosity (318.15 K, m2 = 0): 0.6117 ± 0.0096 mPa·s
- mass density (323.15 K, m2 = 0): 855.5 ± 0.8 kg/m3
- viscosity (323.15 K, m2 = 0): 0.5711 ± 0.0093 mPa·s
- mass density (328.15 K, m2 = 0): 851.2 ± 0.8 kg/m3
- viscosity (328.15 K, m2 = 0): 0.5433 ± 0.0091 mPa·s
- mass density (333.15 K, m2 = 0): 847.1 ± 0.9 kg/m3
- viscosity (333.15 K, m2 = 0): 0.5105 ± 0.0088 mPa·s

Compound: Cc1cccc(C)c1 [1,3-dimethylbenzene] + CC1=CC(=O)c2ccccc2C1=O
- mass density (303.15 K, m2 = 0): 855.6 ± 0.7 kg/m3
- viscosity (303.15 K, m2 = 0): 0.549 ± 0.0092 mPa·s
- mass density (308.15 K, m2 = 0): 851.1 ± 0.8 kg/m3
- viscosity (308.15 K, m2 = 0): 0.5201 ± 0.009 mPa·s
- mass density (313.15 K, m2 = 0): 846.9 ± 0.8 kg/m3
- viscosity (313.15 K, m2 = 0): 0.4967 ± 0.0088 mPa·s
- mass density (318.15 K, m2 = 0): 842.4 ± 0.8 kg/m3
- viscosity (318.15 K, m2 = 0): 0.4817 ± 0.0087 mPa·s
- mass density (323.15 K, m2 = 0): 838.3 ± 0.8 kg/m3
- viscosity (323.15 K, m2 = 0): 0.444 ± 0.0085 mPa·s
- mass density (328.15 K, m2 = 0): 833.7 ± 0.9 kg/m3
- viscosity (328.15 K, m2 = 0): 0.435 ± 0.0084 mPa·s
- mass density (333.15 K, m2 = 0): 829.6 ± 0.9 kg/m3
- viscosity (333.15 K, m2 = 0): 0.413 ± 0.0082 mPa·s

Compound: Cc1ccc(C)cc1 [1,4-dimethylbenzene] + CC1=CC(=O)c2ccccc2C1=O
- mass density (303.15 K, m2 = 0): 852 ± 0.7 kg/m3
- viscosity (303.15 K, m2 = 0): 0.5726 ± 0.0093 mPa·s
- mass density (308.15 K, m2 = 0): 847.7 ± 0.7 kg/m3
- viscosity (308.15 K, m2 = 0): 0.5374 ± 0.009 mPa·s
- mass density (313.15 K, m2 = 0): 843.2 ± 0.8 kg/m3
- viscosity (313.15 K, m2 = 0): 0.5178 ± 0.0089 mPa·s
- mass density (318.15 K, m2 = 0): 838.7 ± 0.8 kg/m3
- viscosity (318.15 K, m2 = 0): 0.4882 ± 0.0087 mPa·s
- mass density (323.15 K, m2 = 0): 834.5 ± 0.8 kg/m3
- viscosity (323.15 K, m2 = 0): 0.4595 ± 0.0085 mPa·s
- mass density (328.15 K, m2 = 0): 829.9 ± 0.8 kg/m3
- viscosity (328.15 K, m2 = 0): 0.4439 ± 0.0084 mPa·s
- mass density (333.15 K, m2 = 0): 825.6 ± 0.9 kg/m3
- viscosity (333.15 K, m2 = 0): 0.4189 ± 0.0082 mPa·s

Compound: CC1=CC(=O)c2ccccc2C1=O [2-methyl-1,4-naphthalenedione] + CCc1ccccc1
- mass density (303.15 K, m1 = 0.0451): 859.9 ± 0.7 kg/m3
- viscosity (303.15 K, m1 = 0.0451): 0.6083 ± 0.0096 mPa·s
- mass density (303.15 K, m1 = 0.0903): 861.8 ± 0.7 kg/m3
- viscosity (303.15 K, m1 = 0.0903): 0.6164 ± 0.0096 mPa·s
- mass density (303.15 K, m1 = 0.1354): 863.7 ± 0.7 kg/m3
- viscosity (303.15 K, m1 = 0.1354): 0.6218 ± 0.0097 mPa·s
- mass density (303.15 K, m1 = 0.1805): 865.6 ± 0.7 kg/m3
- viscosity (303.15 K, m1 = 0.1805): 0.6317 ± 0.0098 mPa·s
- mass density (303.15 K, m1 = 0.2256): 867.5 ± 0.7 kg/m3
- viscosity (303.15 K, m1 = 0.2256): 0.6333 ± 0.0098 mPa·s
- mass density (303.15 K, m1 = 0.271): 869.4 ± 0.7 kg/m3
- viscosity (303.15 K, m1 = 0.271): 0.6361 ± 0.0098 mPa·s
- mass density (308.15 K, m1 = 0.0451): 855.4 ± 0.7 kg/m3
- viscosity (308.15 K, m1 = 0.0451): 0.5735 ± 0.0093 mPa·s
- mass density (308.15 K, m1 = 0.0903): 857.3 ± 0.7 kg/m3
- viscosity (308.15 K, m1 = 0.0903): 0.5794 ± 0.0094 mPa·s
- mass density (308.15 K, m1 = 0.1354): 859.2 ± 0.7 kg/m3
- viscosity (308.15 K, m1 = 0.1354): 0.5853 ± 0.0094 mPa·s
- mass density (308.15 K, m1 = 0.1805): 861.1 ± 0.7 kg/m3
- viscosity (308.15 K, m1 = 0.1805): 0.5893 ± 0.0094 mPa·s
- mass density (308.15 K, m1 = 0.2256): 863 ± 0.7 kg/m3
- viscosity (308.15 K, m1 = 0.2256): 0.5948 ± 0.0095 mPa·s
- mass density (308.15 K, m1 = 0.271): 864.9 ± 0.8 kg/m3
- viscosity (308.15 K, m1 = 0.271): 0.5991 ± 0.0095 mPa·s
- mass density (313.15 K, m1 = 0.0451): 851.4 ± 0.8 kg/m3
- viscosity (313.15 K, m1 = 0.0451): 0.5439 ± 0.0091 mPa·s
- mass density (313.15 K, m1 = 0.0903): 853.3 ± 0.8 kg/m3
- viscosity (313.15 K, m1 = 0.0903): 0.5484 ± 0.0091 mPa·s
- mass density (313.15 K, m1 = 0.1354): 855.2 ± 0.8 kg/m3
- viscosity (313.15 K, m1 = 0.1354): 0.5543 ± 0.0092 mPa·s
- mass density (313.15 K, m1 = 0.1805): 857.1 ± 0.8 kg/m3
- viscosity (313.15 K, m1 = 0.1805): 0.557 ± 0.0092 mPa·s
- mass density (313.15 K, m1 = 0.2256): 859 ± 0.8 kg/m3
- viscosity (313.15 K, m1 = 0.2256): 0.5611 ± 0.0092 mPa·s
- mass density (313.15 K, m1 = 0.271): 860.9 ± 0.8 kg/m3
- viscosity (313.15 K, m1 = 0.271): 0.5673 ± 0.0093 mPa·s
- mass density (318.15 K, m1 = 0.0451): 846.6 ± 0.8 kg/m3
- viscosity (318.15 K, m1 = 0.0451): 0.5104 ± 0.0088 mPa·s
- mass density (318.15 K, m1 = 0.0903): 848.5 ± 0.8 kg/m3
- viscosity (318.15 K, m1 = 0.0903): 0.5148 ± 0.0089 mPa·s
- mass density (318.15 K, m1 = 0.1354): 850.4 ± 0.8 kg/m3
- viscosity (318.15 K, m1 = 0.1354): 0.5192 ± 0.0089 mPa·s
- mass density (318.15 K, m1 = 0.1805): 852.3 ± 0.8 kg/m3
- viscosity (318.15 K, m1 = 0.1805): 0.5241 ± 0.0089 mPa·s
- mass density (318.15 K, m1 = 0.2256): 854.2 ± 0.8 kg/m3
- viscosity (318.15 K, m1 = 0.2256): 0.5283 ± 0.009 mPa·s
- mass density (318.15 K, m1 = 0.271): 856.1 ± 0.8 kg/m3
- viscosity (318.15 K, m1 = 0.271): 0.533 ± 0.009 mPa·s
- mass density (323.15 K, m1 = 0.0451): 842.4 ± 0.8 kg/m3
- viscosity (323.15 K, m1 = 0.0451): 0.4832 ± 0.0086 mPa·s
- mass density (323.15 K, m1 = 0.0903): 844.3 ± 0.8 kg/m3
- viscosity (323.15 K, m1 = 0.0903): 0.4881 ± 0.0087 mPa·s
- mass density (323.15 K, m1 = 0.1354): 846.2 ± 0.8 kg/m3
- viscosity (323.15 K, m1 = 0.1354): 0.4937 ± 0.0087 mPa·s
- mass density (323.15 K, m1 = 0.1805): 848.1 ± 0.8 kg/m3
- viscosity (323.15 K, m1 = 0.1805): 0.4969 ± 0.0087 mPa·s
- mass density (323.15 K, m1 = 0.2256): 850 ± 0.8 kg/m3
- viscosity (323.15 K, m1 = 0.2256): 0.5015 ± 0.0088 mPa·s
- mass density (323.15 K, m1 = 0.271): 851.9 ± 0.8 kg/m3
- viscosity (323.15 K, m1 = 0.271): 0.5054 ± 0.0088 mPa·s
- mass density (328.15 K, m1 = 0.0451): 837.8 ± 0.8 kg/m3
- viscosity (328.15 K, m1 = 0.0451): 0.4615 ± 0.0085 mPa·s
- mass density (328.15 K, m1 = 0.0903): 839.7 ± 0.8 kg/m3
- viscosity (328.15 K, m1 = 0.0903): 0.4648 ± 0.0085 mPa·s
- mass density (328.15 K, m1 = 0.1354): 841.6 ± 0.8 kg/m3
- viscosity (328.15 K, m1 = 0.1354): 0.4715 ± 0.0086 mPa·s
- mass density (328.15 K, m1 = 0.1805): 843.5 ± 0.8 kg/m3
- viscosity (328.15 K, m1 = 0.1805): 0.474 ± 0.0086 mPa·s
- mass density (328.15 K, m1 = 0.2256): 845.4 ± 0.8 kg/m3
- viscosity (328.15 K, m1 = 0.2256): 0.4758 ± 0.0086 mPa·s
- mass density (328.15 K, m1 = 0.271): 847.3 ± 0.8 kg/m3
- viscosity (328.15 K, m1 = 0.271): 0.4806 ± 0.0086 mPa·s
- mass density (333.15 K, m1 = 0.0451): 833.5 ± 0.9 kg/m3
- viscosity (333.15 K, m1 = 0.0451): 0.4405 ± 0.0083 mPa·s
- mass density (333.15 K, m1 = 0.0903): 835.4 ± 0.9 kg/m3
- viscosity (333.15 K, m1 = 0.0903): 0.444 ± 0.0084 mPa·s
- mass density (333.15 K, m1 = 0.1354): 837.3 ± 0.9 kg/m3
- viscosity (333.15 K, m1 = 0.1354): 0.4475 ± 0.0084 mPa·s
- mass density (333.15 K, m1 = 0.1805): 839.2 ± 0.9 kg/m3
- viscosity (333.15 K, m1 = 0.1805): 0.451 ± 0.0084 mPa·s
- mass density (333.15 K, m1 = 0.2256): 841.1 ± 0.9 kg/m3
- viscosity (333.15 K, m1 = 0.2256): 0.4546 ± 0.0084 mPa·s
- mass density (333.15 K, m1 = 0.271): 843 ± 0.9 kg/m3
- viscosity (333.15 K, m1 = 0.271): 0.4581 ± 0.0085 mPa·s
